For 27 compounds, IC50 results are on record in US10556883B2, “Benzenesulfonamide compounds, method for synthesizing same, and use thereof in medicine and cosmetics” (GALDERMA RESEARCH & DEVELOPMENT, priority 2016, dated 2020).

Some results are limits rather than exact numbers.

For this assay, the system named is TNFα secretion from LPS stimulated frozen Peripheral Blood Mononuclear Cells (PBMC). As to the kind of experiment: inhibition of TNFα secretion from LPS stimulated human PBMC (hPBMC assay). Type of assay: cell-based. The following applies: LPS 1 μg/mL, overnight incubation, TNFα by HTRF. How it is done:
Activity of the compounds was investigated using human peripheral blood mononuclear cells (hPBMC). This assay was designed to measure the inhibition of the TNFα secretion from LPS stimulated frozen Peripheral Blood Mononuclear Cells (PBMC) isolated from human blood. TNFα levels were measured using HTRF® Human TNFα kit (Cisbio #62TNFPEC) which is a rapid and quantitative sandwich immunoassay based on TR-FRET technology.
Frozen PBMC were quickly thawed, resuspended in culture medium (RPMI 10% inactivated FBS) and viable cells were seeded in 96-well plates (50,000 cells/well). […] After overnight incubation at 37° C., 10 μL of cell supernatant were mixed with 5 μL of each tagged anti-TNFα specific antibody as recommended by the supplier. After 2 hours of incubation at room temperature, the HTRF® signals were measured using a microplate reader (wavelengths: excitation=337 nm, first emission=620 nm, second emission=665 nm).
Background: In TR-FRET formats the signal depends on donor and acceptor labels being close together.
In general, IC50 refers to the point on the concentration scale where inhibition reaches its midpoint. Lower therefore signals higher potency. On to `Cc1cc(COc2ccc(S(=O)(=O)NC3(CC(=O)NO)CN(C(=O)CC4CCC4)C3)cc2)c2ccccc2n1` [Example 13, 2-(1-(2-cyclobutylacetyl)-3-((4-((2-methylquinolin-4-yl)methoxy)phenyl)sulfonamido)azetidin-3-yl)-N-hydroxyacetamide], for which the IC50 is less than 50 nM.

With `Cc1cc(COc2ccc(S(=O)(=O)NC3(C(=O)NO)CN(C(=O)OC(C)(C)C)C3)cc2)c2ccccc2n1` [Example 14, Tert-butyl 3-(hydroxycarbamoyl)-3-((4-((2-methylquinolin-4-yl)methoxy)phenyl)sulfonamido)azetidine-1-carboxylate], the half-maximal inhibitory concentration (IC50) is less than 50 nM.

`Cc1cc(COc2ccc(S(=O)(=O)NC3(C(=O)NO)CN(C(=O)CC(C)(C)C)C3)cc2)c2ccccc2n1` [Example 15, 1-(3,3-dimethylbutanoyl)-N-hydroxy-3-((4-((2-methylquinolin-4-yl)methoxy)phenyl)sulfonamido)azetidine-3-carboxamide] gave an IC50 of 50 to 100 nM.

With `Cc1cc(COc2ccc(S(=O)(=O)NC3(C(=O)NO)CN(C(=O)N4CCCCC4)C3)cc2)c2ccccc2n1` [Example 16a, N-hydroxy-3-((4-((2-methylquinolin-4-yl)methoxy)phenyl)sulfonamido)-1-(piperidine-1-carbonyl)azetidine-3-carboxamide], the IC50 is 50 to 100 nM.

`Cc1cc(COc2ccc(S(=O)(=O)NC3(C(=O)NO)CN(C(=O)N4CCOCC4)C3)cc2)c2ccccc2n1` [Example 16b, N-hydroxy-3-((4-((2-methylquinolin-4-yl)methoxy)phenyl)sulfonamido)-1-(morpholine-4-carbonyl)azetidine-3-carboxamide] registered an IC50 of less than 50 nM.

In turn, `Cc1cc(COc2ccc(S(=O)(=O)NC3(C(=O)NO)CN(C(=O)N4CCN(C)CC4)C3)cc2)c2ccccc2n1` [Example 16c, N-hydroxy-1-(4-methylpiperazine-1-carbonyl)-3-((4-((2-methylquinolin-4-yl)methoxy)phenyl)sulfonamido)azetidine-3-carboxamide] had an IC50 of less than 50 nM.

`C=CCOC(=O)N1CC(NS(=O)(=O)c2ccc(OCc3cc(C)nc4ccccc34)cc2)(C(=O)NO)C1` [Example 17, Allyl 3-(hydroxycarbamoyl)-3-((4-((2-methylquinolin-4-yl)methoxy)phenyl)sulfonamido)azetidine-1-carboxylate]: the IC50 is less than 50 nM.

`Cc1cc(COc2ccc(S(=O)(=O)N(C)C3(C(=O)NO)CN(C(=O)C(C)C)C3)cc2)c2ccccc2n1` [Example 19a, N-hydroxy-1-isobutyryl-3-((N-methyl-4-((2-methylquinolin-4-yl)methoxy)phenyl)sulfonamido)azetidine-3-carboxamide]: the IC50 was less than 50 nM.

For `CCC(CC)C(=O)N1CC(C(=O)NO)(N(C)S(=O)(=O)c2ccc(OCc3cc(C)nc4ccccc34)cc2)C1` [Example 19b, 1-(2-ethylbutanoyl)-N-hydroxy-3-((N-methyl-4-((2-methylquinolin-4-yl)methoxy)phenyl)sulfonamido)azetidine-3-carboxamide], the IC50 lay within 50 to 100 nM.

With `Cc1cc(COc2ccc(S(=O)(=O)N(C)C3(C(=O)NO)CN(C(=O)C4CCOCC4)C3)cc2)c2ccccc2n1` [Example 19c, N-hydroxy-3-((N-methyl-4-((2-methylquinolin-4-yl)methoxy)phenyl)sulfonamido)-1-(tetrahydro-2H-pyran-4-carbonyl)azetidine-3-carboxamide], the IC50 was less than 50 nM.

Turning to `Cc1cc(COc2ccc(S(=O)(=O)N(C)C3(C(=O)NO)CN(C(=O)CC(C)C)C3)cc2)c2ccccc2n1` [Example 19d, N-hydroxy-3-((N-methyl-4-((2-methylquinolin-4-yl)methoxy)phenyl)sulfonamido)-1-(3-methylbutanoyl)azetidine-3-carboxamide], the IC50 is less than 50 nM.

For `Cc1cc(COc2ccc(S(=O)(=O)N(C)C3(C(=O)NO)CN(C(=O)OC(C)(C)C)C3)cc2)c2ccccc2n1` [Example 20, Tert-butyl 3-(hydroxycarbamoyl)-3-((N-methyl-4-((2-methylquinolin-4-yl)methoxy)phenyl)sulfonamido)azetidine-1-carboxylate], the half-inhibitory concentration (IC50) was less than 50 nM.

`CCN(C1(C(=O)NO)CN(C(=O)C(C)C)C1)S(=O)(=O)c1ccc(OCc2cc(C)nc3ccccc23)cc1` [Example 21a, 3-((N-ethyl-4-((2-methylquinolin-4-yl)methoxy)phenyl)sulfonamido)-N-hydroxy-1-isobutyrylazetidine-3-carboxamide]: the IC50 is less than 50 nM.

Compound `CCN(C1(C(=O)NO)CN(C(=O)C2CCOCC2)C1)S(=O)(=O)c1ccc(OCc2cc(C)nc3ccccc23)cc1` [Example 21b, 3-((N-ethyl-4-((2-methylquinolin-4-yl)methoxy)phenyl)sulfonamido)-N-hydroxy-1-(tetrahydro-2H-pyran-4-carbonyl)azetidine-3-carboxamide] gave a half-maximal inhibitory concentration (IC50) of 50 to 100 nM.

Take `COCCN(C1(C(=O)NO)CN(C(=O)C(C)C)C1)S(=O)(=O)c1ccc(OCc2cc(C)nc3ccccc23)cc1` [Example 22, N-hydroxy-1-isobutyryl-3-((N-(2-methoxyethyl)-4-((2-methylquinolin-4-yl)methoxy)phenyl)sulfonamido)azetidine-3-carboxamide]: the IC50 is less than 50 nM.

Regarding `Cc1cc(COc2ccc(S(=O)(=O)N(C(C)C)C3(C(=O)NO)CN(C(=O)C(C)C)C3)cc2)c2ccccc2n1` [Example 23, N-hydroxy-1-isobutyryl-3-((N-isopropyl-4-((2-methylquinolin-4-yl)methoxy)phenyl)sulfonamido)azetidine-3-carboxamide], the IC50 was in the range of 500 to 1000 nM.

`CC(=O)N1CC(CC(=O)NO)(NS(=O)(=O)c2ccc(OCc3cc(C)nc4c(C)cccc34)cc2)C1` [Example 24, 2-(1-acetyl-3-((4-((2,8-dimethylquinolin-4-yl)methoxy)phenyl)sulfonamido)azetidin-3-yl)-N-hydroxyacetamide] yielded an IC50 of less than 50 nM.

`Cc1cc(COc2ccc(S(=O)(=O)NC3(CC(=O)NO)CN(C(=O)N4CCOCC4)C3)cc2)c2ccccc2n1` [Example 25, N-hydroxy-2-(3-((4-((2-methylquinolin-4-yl)methoxy)phenyl)sulfonamido)-1-(morpholine-4-carbonyl)azetidin-3-yl)acetamide] gave an IC50 of less than 50 nM.

With `CO[C@H]1C[C@H](C(=O)N2CC(NS(=O)(=O)c3ccc(OCc4cc(C)nc5ccccc45)cc3)(C(=O)NO)C2)C1` [Example 26a, N-hydroxy-1-((1r,3r)-3-methoxycyclobutane-1-carbonyl)-3-((4-((2-methylquinolin-4-yl)methoxy)phenyl)sulfonamido)azetidine-3-carboxamide], the IC50 is less than 50 nM.

Take `CO[C@H]1C[C@@H](C(=O)N2CC(NS(=O)(=O)c3ccc(OCc4cc(C)nc5ccccc45)cc3)(C(=O)NO)C2)C1` [Example 26b, N-hydroxy-1-((1s,3s)-3-methoxycyclobutane-1-carbonyl)-3-((4-((2-methylquinolin-4-yl)methoxy)phenyl)sulfonamido)azetidine-3-carboxamide]: the IC50 is less than 50 nM.

In the case of `Cc1cc(COc2ccc(S(=O)(=O)NC3(C(=O)NO)CN(C(=O)CC4CC4)C3)cc2)c2ccccc2n1` [Example 26c, 1-(2-cyclopropylacetyl)-N-hydroxy-3-((4-((2-methylquinolin-4-yl)methoxy)phenyl)sulfonamido)azetidine-3-carboxamide], the half-maximal inhibitory concentration (IC50) was less than 50 nM.

The compound `CC[C@H](C)C(=O)N1CC(NS(=O)(=O)c2ccc(OCc3cc(C)nc4ccccc34)cc2)(C(=O)NO)C1` [Example 26d, (S)-N-hydroxy-1-(2-methylbutanoyl)-3-((4-((2-methylquinolin-4-yl)methoxy)phenyl)sulfonamido)azetidine-3-carboxamide] came in with an IC50 of less than 50 nM.

`Cc1cc(COc2ccc(S(=O)(=O)NC3(C(=O)NO)CN(C(=O)C4CC(F)(F)C4)C3)cc2)c2ccccc2n1` [Example 26e, 1-(3,3-difluorocyclobutane-1-carbonyl)-N-hydroxy-3-((4-((2-methylquinolin-4-yl)methoxy)phenyl)sulfonamido)azetidine-3-carboxamide] yielded an IC50 of less than 50 nM.

The compound `Cc1cc(COc2ccc(S(=O)(=O)NC3(C(=O)NO)CN(C(=O)C(C)C)C3)cc2)c2cccc(C)c2n1` [Example 27, 3-((4-((2,8-dimethylquinolin-4-yl)methoxy)phenyl)sulfonamido)-N-hydroxy-1-isobutyrylazetidine-3-carboxamide] displayed an IC50 of 100 to 500 nM.

In turn, `Cc1cc(COc2ccc(S(=O)(=O)NC3(CC(=O)NO)CN(C(=O)N4CCN(C(C)C)CC4)C3)cc2)c2ccccc2n1` [Example 28a, N-hydroxy-2-(1-(4-isopropylpiperazine-1-carbonyl)-3-((4-((2-methylquinolin-4-yl)methoxy)phenyl)sulfonamido)azetidin-3-yl)acetamide] yielded an IC50 of less than 50 nM.

Compound `Cc1cc(COc2ccc(S(=O)(=O)NC3(C(=O)NO)CN(C(=O)CC(C)C)C3)cc2)c2cccc(F)c2n1` [Example 29, 3-((4-((8-fluoro-2-methylquinolin-4-yl)methoxy)phenyl)sulfonamido)-N-hydroxy-1-(3-methylbutanoyl)azetidine-3-carboxamide] yielded an IC50 of 100 to 500 nM.

With `Cc1cc(COc2ccc(S(=O)(=O)N(C)C3(C(=O)NO)CN(C(=O)C(C)C)C3)cc2)c2cccc(F)c2n1` [Example 30, 3-((4-((8-fluoro-2-methylquinolin-4-yl)methoxy)-N-methylphenyl)sulfonamido)-N-hydroxy-1-isobutyrylazetidine-3-carboxamide], the half-maximal inhibitory concentration (IC50) is less than 50 nM.
